From patent publication US20150203812A1, “Inhibitors of Voltage Gated Ion Channels” (priority 2014, published 2015) come the findings set out here.

One may read the inhibition as the relative decrease from the control value, in per cent. Read a low inhibition as a response near the control.

Molecules are shown by their SMILES.

One experiment addresses T1, human Hv1 channel (Homo sapiens, UniProt Q96D96).
T1 construct: expressed in transfected cells; host or cells: Xenopus oocytes (cRNA injection, pGEMHE vector)
T1 sequence (Q96D96 1-273): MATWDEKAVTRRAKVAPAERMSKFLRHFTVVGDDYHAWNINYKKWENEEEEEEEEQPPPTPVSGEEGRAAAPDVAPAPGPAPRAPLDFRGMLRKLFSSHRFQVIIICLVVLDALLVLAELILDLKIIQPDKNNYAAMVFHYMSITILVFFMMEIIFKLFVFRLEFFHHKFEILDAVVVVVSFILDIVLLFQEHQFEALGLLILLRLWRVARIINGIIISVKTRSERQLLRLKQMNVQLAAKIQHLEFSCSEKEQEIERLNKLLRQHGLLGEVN
As to the kind of experiment: Patch-clamp assay of Hv1 proton transport inhibition in Xenopus oocytes expressing human Hv1. The class given is cell-based. As to conditions: 4 μM. The method, then: Plasmids were linearized with either NheI or SphI restriction enzymes (New England Biolabs) before in vitro transcription. RNA synthesis was carried out with a T7 mMessage mMachine transcription kit (Ambion). […] The linearized plasmid was transcribed with SP6 RNA polymerase. cRNAs were injected in Xenopus oocytes (50 nl per cell, 0.3-1.5 μg/μl) 1-3 days before the electro-physiological measurements. Cells were kept at 18° C. in ND96 medium containing 96 mM NaCl, 2 mM KCl, 1.8 mM CaCl2, 1 mM MgCl2, 10 mM HEPES, 5 mM pyruvate, 100 μg/ml gentamycin (pH 7.2).
The bath solution contained 100 mM 2-(N-morpholino)ethanesulphonic acid (MES), 30 mM tetraethylammonium (TEA) methanesulfonate, 5 mM TEA chloride, 5 mM ethyleneglycol-bis(2-ami-noethyl)-N,N,N0,N0-tetra-acetic acid (EGTA), adjusted to pH 6.0 with TEA hydroxide. For recordings carried out in the absence of pH gradient (pHi=pHo=6.0), the pipette solution had the same composition of the bath solution. Some of the measurements were performed in the presence of a pH gradient (pHi=6.0, pHo=7.5). In these cases the extracellular solution contained 100 mM 4-(2-hydroxyethyl)-1-piperazineethanesulfonic acid (HEPES), 40 mM TEA methanesulfonate, 5 mM TEA chloride, adjusted to pH 7.5 with TEA hydroxide. Native proton currents in BV-2, RAW264.7, and THP-1 were measured in whole-cell configuration with an intracellular solution containing: 90 mM TEA methanesulfonate, 100 mM MES, 2 mM MgCl2, 2 mM EGTA, adjusted to pH 6.0 with TEA hydroxide. The extracellular solution contained: 85 mM TEA methanesulfonate, 100 mM HEPES, 3 mM CaCl2, 1 mM EGTA, adjusted to pH 7.5 with TEA hydroxide. All measurements were performed at 22° C.±2° C. Pipettes had 2-4 M access resistance. Current traces were filtered at 1 kHz, sampled at 5 kHz and analyzed with Clampfit10.2 (Molecular Devices) and Origin8.1 (OriginLab).
On the technique in general: In patch-clamp work, channel activity is measured electrically.
In turn, `N=C(N)Nc1nc2ccc([N+](=O)[O-])cc2[nH]1` [5-nitro-2-guanidinobenzimidazole] registered an inhibition at 4 µM of 57 ± 10%.

The experiment is the same for the next values; noted with them: 40 μM.
With `Nc1nnc(Nc2ccc(Cl)cc2)[nH]1` [N(3)-(4-chlorophenyl)-4H-1,2,4-triazole-3,5-diamine], the inhibition at 40 µM amounted to 28 ± 7%.

Staying with this experiment, now noted: 200 μM.
As for `Nc1ncc[nH]1` [2-aminoimidazole], the inhibition at 200 µM was determined as 21.2 ± 5.1%.

In turn, `Cc1nc(NC(=N)N)nc2ccccc12` [2-guanidino-4-methylquinazoline] showed an inhibition at 200 µM of 31.7 ± 0.7%.

For the compound `Nc1ncccn1` [2-aminopyrimidine], at 200 µM the inhibition was 2 ± 1%.

Take `N=C(N)Nc1nc2ccccc2o1` [1-(1,3-benzoxazol-2-yl)guanidine]: the inhibition at 200 µM is 1 ± 1%.

On to `N=C(N)Nc1nc2ccccc2[nH]1` [2-guanidinobenzimidazole], for which the inhibition at 200 µM is 82.6 ± 2.25%.

`CC(=O)N(C(=N)NC(=N)N)c1ccccc1` [N-(guanidino-iminomethyl)-N-phenylacetamide] gave an inhibition at 200 µM of 0.5 ± 1%.

On to `CCOC(=O)c1sc(NC(=N)N)nc1C` [ethyl 2-[[amino(imino)methyl]amino]-4-methyl-1,3-thiazole-5-carboxylate], for which the inhibition at 200 µM is 31%.

Take `NC(N)=Nc1nc(CSCCC(N)=NS(N)(=O)=O)cs1` [3-([2-(diaminomethyleneamino)thiazol-4-yllmethylthio)-N′-sulfamoylpropanimidamide]: the “Hv1 proton transport % inhibition” value is recorded as 21.5 ± 2.7%.

`CCOC(=O)c1nc(NC(=N)N)sc1C` [ethyl 2-[[amino(imino)methyl]amino]-5-methyl-1,3-thiazole-4-carboxylate] gave an inhibition at 200 µM of 39.4 ± 3.4%.

Take `N=C(N)NCCCCN` [agmatine]: testing at 200 µM gave an inhibition of 18.5 ± 1.5%.

Compound `N=C(N)NN` [aminoguanidine, amino-guanidine] came in with an inhibition at 200 µM of 4.3 ± 2.3%.

In turn, `Nc1nc2ccccc2[nH]1` [2-aminobenzimidazole] registered an inhibition at 200 µM of 29.8 ± 2.5%.

For the compound `CCOC(=O)Cc1sc(NC(=N)N)nc1C` [ethyl (2-[[amino(imino)methyl]amino1-4-methyl-1,3-thiazol-5-yl)acetate], the “Hv1 proton transport % inhibition” value came out at 68.2 ± 2.2%.

`CN(C)C(=N)NC(=N)N` [1,1-dimethylbiguanide]: the inhibition at 200 µM is 6.8 ± 2.25%.

In the case of `N=C(N)Nc1nc2ccccc2s1` [1-(1,3-benzothiazol-2-yl)guanidine], at 200 µM the inhibition was 81%.

In the case of `COc1ccc(CCN2CCC(Nc3nc4ccccc4n3Cc3ccc(F)cc3)CC2)cc1` [1-[(4-fluorophenyl)methyl]-N-[1-[2-(4-methoxyphenyl)ethyl]-4-piperidylibenzoimidazol-2-amine], the “Hv1 proton transport % inhibition” value is recorded as 67 ± 6%.

For the compound `CC(C)OC(=O)CCCCC(=NNC(=N)N)c1ccccc1` [isopropyl 6-(guanidinoimino)-6-phenylhexanoate], testing at 200 µM gave an inhibition of 73 ± 3%.

The same experiment, now with this note: 600 μM.
Consider `CN1CC(=O)NC1=N` [Creatinine, reference compound], for which the “Hv1 proton transport % inhibition” value turned out to be 0%.
